Patent publication US10800807B2, “TGR5 modulators and methods of use thereof” (Intercept Pharmaceuticals, Inc., priority 2015, dated 2020)
Numbering of substitutions follows the chain as printed. In brackets after ≈: the same amount, converted by molar mass. Where two headings read alike, the source gives them in different places.

Columns and labels:
[1] = Critical micellar concentration (surface tension / dye solubilization); assay type: physicochemical
TGR5 [2] = biological target: T1, TGR5 (Homo sapiens, UniProt Q8TDU6); test: TGR5 activity: intracellular cAMP levels, NCI-H716 cells (HTR-FRET); assay type: cell-based; set-up: endogenous in cells; host or cells: NCI-H716; conditions: for Emax: read-out: TGR5 (NCI-H716) Efficacy; for EC50: cAMP
T1 sequence (Q8TDU6 1-330): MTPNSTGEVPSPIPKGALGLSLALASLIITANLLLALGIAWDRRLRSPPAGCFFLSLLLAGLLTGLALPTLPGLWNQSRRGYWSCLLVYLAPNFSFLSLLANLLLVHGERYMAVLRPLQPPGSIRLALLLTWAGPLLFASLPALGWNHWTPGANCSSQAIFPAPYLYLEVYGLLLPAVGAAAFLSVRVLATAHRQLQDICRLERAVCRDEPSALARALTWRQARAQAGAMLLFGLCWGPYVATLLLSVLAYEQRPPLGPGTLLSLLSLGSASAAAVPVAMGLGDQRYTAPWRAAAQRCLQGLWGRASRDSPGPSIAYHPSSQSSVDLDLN
Method: Activation of TGR5 was assessed by measuring the level of cAMP using an HTR-FRET assay. Thus, NCI-H716 cells were cultured on 96-well plates coated with Matrigel (Corning, USA) (0.75 mg/ml) in DMEM supplemented with 10% FCS, 100 units/ml penicillin, and 100 μg/ml streptomycin sulphate. […] The level of intracellular cAMP was determined with Lance kit. Z′ factor was used to validate assays.

[3] = Lipophilicity, 1-octanol/water partition coefficient (shake-flask); assay type: physicochemical; conditions: pH 8.00, ionized BA
Method: The experiments were carried out on 1 mM initial bile salt solution buffered at pH 8.00 with 0.1 M potassium phosphate buffer to ensure complete ionization of the BA. BA concentration in the water phase before and after partition in 1-octanol was measured by HPLC-ESMS/MS as reported below.

bovine serum albumin = bovine serum albumin (Bos taurus, UniProt P02769); test: Albumin binding by equilibrium dialysis; assay type: in vitro ADME; conditions: 5% bovine serum albumin saline solution, 25° C.
bovine serum albumin, sequence (P02769 25-607): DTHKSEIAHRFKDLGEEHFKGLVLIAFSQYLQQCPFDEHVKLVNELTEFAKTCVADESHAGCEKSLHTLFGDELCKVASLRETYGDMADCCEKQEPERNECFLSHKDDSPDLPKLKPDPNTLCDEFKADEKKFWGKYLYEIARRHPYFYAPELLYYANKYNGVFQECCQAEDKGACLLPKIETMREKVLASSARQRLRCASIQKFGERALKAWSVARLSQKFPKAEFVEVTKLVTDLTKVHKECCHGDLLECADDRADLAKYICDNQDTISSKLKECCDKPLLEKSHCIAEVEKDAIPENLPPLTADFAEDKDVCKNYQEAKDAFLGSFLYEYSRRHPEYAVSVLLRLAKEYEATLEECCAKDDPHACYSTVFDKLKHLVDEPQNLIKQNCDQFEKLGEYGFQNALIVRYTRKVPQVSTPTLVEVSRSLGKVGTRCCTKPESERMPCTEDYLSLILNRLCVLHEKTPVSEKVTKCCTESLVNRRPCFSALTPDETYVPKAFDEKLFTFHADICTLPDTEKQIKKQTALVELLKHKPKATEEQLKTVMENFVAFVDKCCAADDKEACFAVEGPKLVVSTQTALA
Method: BA was dissolved at a concentration of […] in 5% bovine serum albumin saline solution and left to stand for 24 hours at 25° C. Two milliliters of this solution was dialyzed in cellulose sacs with a molecular weight cut-off of 12-14 kDa (Spectra/Por; Spectrum Medical Industries Inc., Rancho Dominguez, Calif.) against 25 ml of saline solution. The system was equilibrated by mechanical shaking for 72 hours at 25° C. BA concentrations in the starting solution and in the dialyzed solution were determined by HPLC-ES-MS/MS as reported below.

TGR5 [4] = biological target: T1, TGR5; test: TGR5 activity: cAMP in hTGR5 CHO-k1 cells; assay type: cell-based; set-up: expressed in transfected cells; host or cells: CHO-k1; conditions: for Emax: 0.5 h, read-out: hTGR5 CHO Efficacy; for EC50: cAMP
[5] = Critical micellar concentration (surface tension / dye solubilization); assay type: physicochemical; conditions: BA sodium salts in 0.1 M NaCl, 25° C.
Method: In the first method, the surface tension was performed by maximum bubble-pressure method using a Sensadyne 6000 tensiometer (Chem-Dyne Research Corp., Milwaukee, Wis.). The surface tension of aqueous solutions at various concentrations (range 0.1-100 mM) of the BA sodium salts in 0.1 M NaCl was measured at 25° C. The surface tension values were plotted against the logarithm of the bile salt concentration; the regression lines corresponding to the two parts of the curve (monomeric and micellar phases) were calculated using the method of least squares. The critical micellar concentration (CMC) value (mM) was obtained by the intersection of the two lines.
The second method is based on the fact that some dyes, specifically Orange OT ([…]), are almost insoluble in water but dissolve in solutions with micellar aggregates that incorporate them; thus, the intensity of color of the solution increases with bile salt concentration (after CMC achievement). The amount of dye solubilized in relation to bile salt concentration was determined spectrophotometrically.
For each bile acid, various solution at different concentrations, between 50 mM and 0.1 mM with appropriate dilutions, were incubated under stirring at room temperature for 3 days with an excess of Orange OT. Then all the solutions were centrifuged and filtered through a 0.22 μm Millipore fiiter (Millipore Corp., Bedford, Mass.).

[6] = biological target: T2, mouse glutathione transferase-tagged FXR-LBD (Mus musculus, UniProt Q60641); test: FXR AlphaScreen coactivator recruitment assay (mouse); assay type: biochemical; conditions: for EC50: read-out: (mFXR) EC50; for Emax: read-out: (mFXR) Efficacy
T2 construct: mouse glutathione transferase-tagged FXR-LBD (generated in-house); made in house
T2 sequence (Q60641 264-488 limits assumed): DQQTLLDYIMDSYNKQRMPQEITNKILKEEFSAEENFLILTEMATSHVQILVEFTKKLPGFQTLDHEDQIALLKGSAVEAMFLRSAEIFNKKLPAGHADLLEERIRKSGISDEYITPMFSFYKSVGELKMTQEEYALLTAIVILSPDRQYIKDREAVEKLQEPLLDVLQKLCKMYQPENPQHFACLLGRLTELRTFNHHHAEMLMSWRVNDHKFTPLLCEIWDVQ

[7] = biological target: T3, human glutathione transferase-tagged FXR-LBD (Homo sapiens, UniProt Q96RI1); test: FXR AlphaScreen coactivator recruitment assay (human); assay type: biochemical; set-up: Emax: dose or concentration left out as unconfirmed; conditions: for EC50: human FXR-LBD, AlphaScreen, read-out: hFXR EC50; for Emax: read-out: hFXR Efficacy;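 on hFXR Efficacy: CDCA at 50 µM taken as 100%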
T3 construct: human glutathione transferase-tagged FXR-LBD (Life Technologies, USA); purchased Life Technologies, USA
T3 sequence (Q96RI1 262-486 limits assumed): T2 sequence (Q60641 264-488 limits assumed) with D7H, Y8F, S46N, I50V, A95S, A98S, K107N, V125I, M174I, Y175H

mTGR5 = biological target: T4, mTGR5 (Mus musculus, UniProt Q80SS6); test: TGR5 activity: cAMP in mTGR5 CHO-Pi10 clone 4 cells; assay type: cell-based; conditions: for Emax: 0.5 h, read-out: (mTGR5 CHO) Efficacy
T4 construct: expressed in transfected cells; host or cells: CHO-Pi10 clone 4
T4 sequence (Q80SS6 1-329): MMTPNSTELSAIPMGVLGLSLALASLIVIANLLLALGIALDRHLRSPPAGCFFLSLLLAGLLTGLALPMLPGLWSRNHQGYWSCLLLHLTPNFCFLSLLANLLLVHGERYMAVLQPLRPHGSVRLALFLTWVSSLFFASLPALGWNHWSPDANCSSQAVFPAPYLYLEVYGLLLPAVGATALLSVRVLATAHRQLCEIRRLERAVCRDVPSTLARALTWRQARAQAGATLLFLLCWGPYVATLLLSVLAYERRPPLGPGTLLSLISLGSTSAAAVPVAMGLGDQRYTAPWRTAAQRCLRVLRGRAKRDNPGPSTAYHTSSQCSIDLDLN

Water solubility = assay type: physicochemical; conditions: simulated gastric fluid, thermodynamic from solid, 0.1 M HCl, pH 1.00, 25° C., read-out: Ws
Method: BA were suspended in 100 ml of 0.1 M HCl, pH 1.00, and the saturated solutions were transferred to a thermostat-equipped water bath maintained at 25° C. After incubation for 1 week, the solutions were filtered on a Millipore filter ([…]), and the concentration of BA was measured by HPLC-ESMS/MS as reported below.

[8] = 1 h, NCI-H716 cells, Ref. LCA 100% at 10 μM
[9] = hTGR5 CHO cells, Ref. LCA 100% at 10 μM
[10] = mouse FXR-LBD, value in parentheses
[11] = mTGR5 CHO cells, value in parentheses

CC[C@H]1[C@@H](O)C2C3CC[C@H]([C@H](C)C(F)(F)C(=O)O)[C@@]3(C)CCC2[C@@]2(C)CC[C@@H](O)C[C@@H]12 (some centres unmarked) (hydrate or solvate)
melting point: 254 to 256 °C

CC[C@H]1[C@@H](O)[C@@H]2[C@H](CC[C@]3(C)[C@@H]([C@H](C)CCc4nn[nH]n4)[C@@H](O)C[C@@H]23)[C@@]2(C)CC[C@@H](O)C[C@@H]12 [Compound 17, 3α,7α,16β-Trihydroxy-6α-ethyl-23-(tetrazol-5-yl)-24-nor-5β-cholane]
CMpH [1]: 9.0
Emax (TGR5 [2]; [8]): 119 ± 2%
EC50 (TGR5 [2]; NCI-H716 cells): 1200 ± 100 nM
pKa (pKa): 5.71
LogPA− [3]: 2.0
Albumin binding (%) (bovine serum albumin): 90%
Emax (TGR5 [4]; [9]): 103 ± 2%
EC50 (TGR5 [4]; hTGR5 CHO cells): 100 ± 40 nM
CMC [5]: 11 mM
EC50 [6, 10]: 2300 nM
Emax [6, 10]: 171%
EC50 [7]: 450 ± 50 nM
Emax [7]: 138 ± 9%
Emax (mTGR5; [11]): 101%
EC50 (mTGR5; [11]): 800 nM
solubility thermodynamic at 1 week (Water solubility): 5 µM (≈ 2.3 µg/mL)

CC[C@H]1[C@@H](O)C2C3CC[C@H]([C@H](C)CC(=O)NCCO)[C@@]3(C)CCC2[C@@]2(C)CC[C@@H](O)C[C@@H]12 (stereo partly drawn) [Compound 19, 3α,7α-Dihydroxy-6α-ethyl-N-(2-hydroxyethyl)-24-nor-5β-cholan-23-amide]
CMpH [1]: 1.3
Emax (TGR5 [2]; NCI-H716, 1 h): 128 ± 1%
EC50 (TGR5 [2]; NCI-H716 cells): 160 ± 10 nM
pKa (pKa): 14.3
LogPA− [3]: 1.0
Albumin binding (%) (bovine serum albumin): 51%
Emax (TGR5 [4]; CHO): 105 ± 2%
EC50 (TGR5 [4]; hTGR5 CHO cells): 20 ± 8 nM
CMC [5]: 5 mM
EC50 [6, 10]: 10000 nM
Emax [6]: 122%
EC50 [7]: 3000 ± 1000 nM
Emax [7]: 137 ± 2%
Emax (mTGR5; CHO): 106%
EC50 (mTGR5; [11]): 80 nM
solubility thermodynamic at 1 week (Water solubility): 2150 µM (≈ 967 µg/mL)

CC[C@H]1[C@@H](O)C2C3CC[C@H]([C@H](C)C[C@@H](CO)C(=O)O)[C@@]3(C)[C@@H](O)CC2[C@@]2(C)CC[C@@H](O)C[C@@H]12 (stereo partly drawn) [Compound 4, 3α,7α,12α-Trihydroxy-6α-ethyl-23(A)-hydroxymethyl-5β-cholan-24-oic acid]
CMpH [1]: 4.5
Emax (TGR5 [2]; NCI-H716, 1 h): 77 ± 10%
EC50 (TGR5 [2]; NCI-H716 cells): 7500 ± 5000 nM
pKa (pKa): 4.36
LogPA− [3]: −0.2
Albumin binding (%) (bovine serum albumin): 55%
Emax (TGR5 [4]; CHO): 99 ± 1.4%
EC50 (TGR5 [4]; hTGR5 CHO cells): 4650 ± 500 nM
CMC [5]: 5 mM
EC50 [6, 10]: > 150000 nM
EC50 [7]: 80000 ± 30000 nM
Emax [7]: 20 ± 2%
Emax (mTGR5; CHO): 102%
EC50 (mTGR5; [11]): 1300 nM
solubility thermodynamic at 1 week (Water solubility): 3200 µM (≈ 1490 µg/mL)

CC[C@H]1[C@@H](O)C2C3CC[C@H]([C@H](C)CCc4nn[nH]n4)[C@@]3(C)[C@@H](O)CC2[C@@]2(C)CC[C@@H](O)C[C@@H]12 (stereo partly drawn) [Compound 12, 3α,7α,12α-Trihydroxy-6α-ethyl-23-(tetrazol-5-yl)-24-nor-5β-cholane]
CMpH [1]: 6.6
Emax (TGR5 [2]; [8]): 104%
EC50 (TGR5 [2]; NCI-H716 cells): 4000 nM
pKa (pKa): 5.59
LogPA− [3]: 1.5
Albumin binding (%) (bovine serum albumin): 83%
Emax (TGR5 [4]; [9]): 101 ± 1.4%
EC50 (TGR5 [4]; hTGR5 CHO cells): 710 ± 80 nM
CMC [5]: 5 mM
EC50 [6, 10]: 12700 nM
Emax [6, 10]: 93%
EC50 [7]: 1700 ± 600 nM
Emax [7]: 125 ± 15%
Emax (mTGR5; [11]): 105%
EC50 (mTGR5; [11]): 840 nM
solubility thermodynamic at 1 week (Water solubility): 517 µM (≈ 238 µg/mL)

CC[C@@H]1C2C[C@H](O)CC[C@]2(C)C2CC[C@@]3(C)C(CC[C@@H]3[C@H](C)Cc3nc(=O)o[nH]3)C2[C@@H]1O (some centres unmarked) [Compound 14]
CMpH [1]: 5.0
Emax (TGR5 [2]; [8]): 110 ± 2%
EC50 (TGR5 [2]; NCI-H716 cells): 1600 ± 300 nM
pKa (pKa): 5
LogPA− [3]: 1.9
Albumin binding (%) (bovine serum albumin): 99%
Emax (TGR5 [4]; [9]): 107 ± 1%
EC50 (TGR5 [4]; hTGR5 CHO cells): 480 ± 300 nM
CMC [5]: 10 mM
EC50 [6, 10]: 460 nM
Emax [6, 10]: 264%
EC50 [7]: 75 ± 10 nM
Emax [7]: 165 ± 15%
Emax (mTGR5; [11]): 111%
EC50 (mTGR5; [11]): 900 nM
solubility thermodynamic at 1 week (Water solubility): 2020 µM (≈ 904 µg/mL)
